Source: the supplement of paper PMC10307832

Assays:
Assay in all cases: relative viability (nuclei count vs DMSO), 5 days (fraction); higher = more cells survive
[1] = compound: CCN(CCO)CCCC(C)Nc1ccnc2cc(Cl)ccc12 [Hydroxychloroquine] + CS(=O)(=O)N1CCN(Cc2cc3nc(-c4cccc5[nH]ncc45)nc(N4CCOCC4)c3s2)CC1 [Pictilisib] (partner 1 µM)
Outline: (§1)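 Cells from lung cancer lines were seeded into 1536-well plates and, one day later, dosed by pin tool. Treatments were either a single drug or a fixed dose of an anchor drug with five library-drug doses (not always all listed) in √10 steps. After 5 days, nuclei were stained in a one-step fixation (final 0.05% Triton X-100, 1% formaldehyde, 1 ug/ml Hoechst) and counted on 4× images, and relative viability is the treated-to-vehicle nuclei ratio, as the median of duplicate plates.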

[2] = compound: CCN(CCO)CCCC(C)Nc1ccnc2cc(Cl)ccc12 [Hydroxychloroquine] + CC(C)C[C@H](NC(=O)[C@H](Cc1ccccc1)NC(=O)c1cnccn1)B(O)O [Bortezomib] (partner 0.002 µM)
Outline: as §1

[3] = compound: CCN(CCO)CCCC(C)Nc1ccnc2cc(Cl)ccc12 [Hydroxychloroquine] + COc1cc2c(Oc3ccc(NC(=O)C4(C(=O)Nc5ccc(F)cc5)CC4)cc3F)ccnc2cc1OCCCN1CCOCC1 [Foretinib] (partner 0.25 µM)
Outline: as §1

[4] = compound: CCN(CCO)CCCC(C)Nc1ccnc2cc(Cl)ccc12 [Hydroxychloroquine] + CC(=O)c1c(C)c2cnc(Nc3ccc(N4CCNCC4)cn3)nc2n(C2CCCC2)c1=O [Palbociclib] (partner 0.5 µM)
Outline: as §1

Cell Line	relative viability ([1]; first compound 0.5 µM)	relative viability ([1]; first compound 1.581 µM)	relative viability ([1]; first compound 5 µM)	relative viability ([1]; first compound 15.81 µM)	relative viability ([1]; first compound 50 µM)	relative viability ([2]; first compound 0.5 µM)	relative viability ([2]; first compound 1.581 µM)	relative viability ([2]; first compound 5 µM)	relative viability ([2]; first compound 15.81 µM)	relative viability ([2]; first compound 50 µM)	relative viability ([3]; first compound 0.5 µM)	relative viability ([3]; first compound 1.581 µM)	relative viability ([3]; first compound 5 µM)	relative viability ([3]; first compound 15.81 µM)	relative viability ([3]; first compound 50 µM)	relative viability ([4]; first compound 0.5 µM)	relative viability ([4]; first compound 1.581 µM)	relative viability ([4]; first compound 5 µM)	relative viability ([4]; first compound 15.81 µM)	relative viability ([4]; first compound 50 µM)
NCI-H1651	0.6	0.663	0.561	0.574	0.592	0.947	0.932	0.866	0.982	0.943	0.934	0.762	0.865	0.925	0.88	0.536	0.5	0.517	0.567	0.54
NCI-H1666	0.519	0.409	0.377	0.477	0.402	0.907	0.658	0.652	0.714	0.772	0.969	0.949	0.876	0.894	0.872	0.651	0.67	0.653	0.646	0.622
NCI-H1734	0.507	0.294	0.462	0.491	0.47	0.98	0.918	1.03	0.918	1.01	0.893	0.864	0.864	0.784	0.866	0.316	0.296	0.37	0.305	0.362
NCI-H1755	0.431	0.273	0.374	0.425	0.379	0.955	0.868	0.918	0.927	0.953	0.906	0.797	0.854	0.922	0.842	0.459	0.398	0.445	0.443	0.475
NCI-H1915	0.973	0.869	0.947	0.895	0.978	1.07	0.953	1.02	0.923	1.03	1.07	1.11	1.15	1.1	1.12	0.532	0.495	0.559	0.568	0.542
NCI-H1975	0.292	0.26	0.305	0.263	0.328	0.343	0.333	0.342	0.379	0.354	0.942	0.866	0.988	1.05	0.97	0.47	0.53	0.603	0.615	0.789
NCI-H1993	0.824	0.961	0.625	0.81	0.789	1.01	0.884	1.04	1.13	1.03	0.867	0.711	0.735	0.887	0.79	0.6	0.575	0.692	0.662	0.693
NCI-H2009	0.844	0.776	0.901	0.803	0.989	1.02	1.04	0.956	0.963	1.07	1.19	1.21	1.24	1.16	1.18	0.195	0.209	0.212	0.237	0.197
